These results are taken from US10988459B2 (priority 2015, dated 2021).

Each structure is given as a SMILES string.

The assay deals with human RIP1 kinase domain (2-375) (Homo sapiens (Human), UniProt Q13546). The assay can be described thus: biochemical. Conditions: human RIP1 kinase domain (2-375), Transcreener ADP assay, 50 uM ATP, 2 hours incubation; read-out: RIP1 Ki. The assay is classed as biochemical. Summed up: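 Ki^app comes from Morrison tight-binding fits of fractional activity versus compound concentration. Activity was read as ADP production, via tracer displacement lowering fluorescence polarization (633 nm laser). Conditions: 2 h, 50 nM insect-cell-expressed enzyme, 50 uM ATP, 30 mM MgCl2, 1 mM DTT, 0.5% DMSO, pH 7.5 Hepes.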
human RIP1 kinase domain (2-375), sequence (Q13546 2-375): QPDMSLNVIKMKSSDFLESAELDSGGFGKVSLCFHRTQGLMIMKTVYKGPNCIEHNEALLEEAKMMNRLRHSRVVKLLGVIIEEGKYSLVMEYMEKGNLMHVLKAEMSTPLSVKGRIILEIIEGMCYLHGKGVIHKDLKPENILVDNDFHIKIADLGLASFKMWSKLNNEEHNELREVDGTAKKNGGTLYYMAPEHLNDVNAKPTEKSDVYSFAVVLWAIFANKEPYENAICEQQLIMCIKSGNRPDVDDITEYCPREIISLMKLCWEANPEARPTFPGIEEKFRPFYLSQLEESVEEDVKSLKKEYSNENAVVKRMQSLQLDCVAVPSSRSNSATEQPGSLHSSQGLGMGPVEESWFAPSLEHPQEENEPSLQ
Broadly, the Ki is a measure of affinity in units of concentration, obtained from inhibition or displacement. For `Cc1cc2n(n1)CCC(NC(=O)c1ncn(CC3CCCCC3)n1)C(=O)N2C` (stereo not drawn) [Example 253, 1-(cyclohexylmethyl)-N-(2,4-dimethyl-5-oxo-5,6,7,8-tetrahydro-4H-pyrazolo[1,5-a][1,3]diazepin-6-yl)-1H-1,2,4-triazole-3-carboxamide], the Ki turned out to be 171 nM. On to `CN1C(=O)C(NC(=O)c2ncn(CC3CCOCC3)n2)CCn2nc(C3CC3)cc21` (stereo not drawn) [Example 254, N-(2-cyclopropyl-4-methyl-5-oxo-5,6,7,8-tetrahydro-4H-pyrazolo[1,5-a][1,3]diazepin-6-yl)-1-((tetrahydro-2H-pyran-4-yl)methyl)-1H-1,2,4-triazole-3-carboxamide], for which the Ki was found to be 2200 nM. The result for `CN1C(=O)C(NC(=O)c2ncn(CC3CCC(F)(F)CC3)n2)CCn2nc(C3CC3)cc21` (stereo not drawn) [Example 255, N-(2-cyclopropyl-4-methyl-5-oxo-5,6,7,8-tetrahydro-4H-pyrazolo[1,5-a][1,3]diazepin-6-yl)-1-((4,4-difluorocyclohexyl)methyl)-1H-1,2,4-triazole-3-carboxamide] reads 421 nM; that for `CN1C(=O)C(NC(=O)c2ncn(CC3CCC3)n2)CCn2nc(C3CC3)cc21` (stereo not drawn) [Example 256, 1-(cyclobutylmethyl)-N-(2-cyclopropyl-4-methyl-5-oxo-5,6,7,8-tetrahydro-4H-pyrazolo[1,5-a][1,3]diazepin-6-yl)-1H-1,2,4-triazole-3-carboxamide], 210 nM; that for `CN1C(=O)C(NC(=O)c2ncn(Cc3ccc(F)cc3)n2)CCn2nc(C3CC3)cc21` (stereo not drawn) [Example 257, N-(2-cyclopropyl-4-methyl-5-oxo-5,6,7,8-tetrahydro-4H-pyrazolo[1,5-a][1,3]diazepin-6-yl)-1-(4-fluorobenzyl)-1H-1,2,4-triazole-3-carboxamide], 82.9 nM. The result for `CN1C(=O)C(NC(=O)c2ncn(CCC(F)(F)F)n2)CCn2nc(C3CC3)cc21` (stereo not drawn) [Example 258, N-(2-cyclopropyl-4-methyl-5-oxo-5,6,7,8-tetrahydro-4H-pyrazolo[1,5-a][1,3]diazepin-6-yl)-1-(3,3,3-trifluoropropyl)-1H-1,2,4-triazole-3-carboxamide] reads 1600 nM; that for `Cc1cccc(Cn2cnc(C(=O)NC3CCn4nc(C5CC5)cc4N(C)C3=O)n2)n1` (stereo not drawn) [Example 259, N-(2-cyclopropyl-4-methyl-5-oxo-5,6,7,8-tetrahydro-4H-pyrazolo[1,5-a][1,3]diazepin-6-yl)-1-((6-methylpyridin-2-yl)methyl)-1H-1,2,4-triazole-3-carboxamide], 789 nM; that for `CN1C(=O)C(NC(=O)c2ncn(CC3CC3)n2)CCn2nc(C3CC3)cc21` (stereo not drawn) [Example 260, N-(2-cyclopropyl-4-methyl-5-oxo-5,6,7,8-tetrahydro-4H-pyrazolo[1,5-a][1,3]diazepin-6-yl)-1-(cyclopropylmethyl)-1H-1,2,4-triazole-3-carboxamide], 1900 nM.

For the compound `CN1C(=O)C(NC(=O)c2ncn(CC3CCCC3)n2)CCn2nc(C3CC3)cc21` (stereo not drawn) [Example 261, 1-(cyclopentylmethyl)-N-(2-cyclopropyl-4-methyl-5-oxo-5,6,7,8-tetrahydro-4H-pyrazolo[1,5-a][1,3]diazepin-6-yl)-1H-1,2,4-triazole-3-carboxamide], the Ki stood at 104 nM. As for `Cc1cc2n(n1)CC[C@H](NC(=O)c1ncn(CC3CC3(F)F)n1)C(=O)N2C` (stereo partly drawn) [Example 262, 1-((2,2-difluorocyclopropyl)methyl)-N—((S)-2,4-dimethyl-5-oxo-5,6,7,8-tetrahydro-4H-pyrazolo[1,5-a][1,3]diazepin-6-yl)-1H-1,2,4-triazole-3-carboxamide], the Ki worked out at 511 nM. In the case of `CC[C@@]1(C)OCc2cnc(C(=O)NC3CCn4cnc(C)c4N(C)C3=O)cc21` (stereo partly drawn) [Example 263, (1R)—N-(1,9-dimethyl-2-oxo-2,3,4,5-tetrahydro-1H-imidazo[1,5-a][1,3]diazepin-3-yl)-1-ethyl-1-methyl-1,3-dihydrofuro[3,4-c]pyridine-6-carboxamide], the Ki was determined as 854 nM.

Consider `CC[C@@]1(C)OCc2cc(C(=O)NC3CCn4nc(-c5ccccc5)cc4N(C)C3=O)ncc21` (stereo partly drawn) [Example 264, (3R)-3-ethyl-3-methyl-N-(4-methyl-5-oxo-2-phenyl-5,6,7,8-tetrahydro-4H-pyrazolo[1,5-a][1,3]diazepin-6-yl)-1,3-dihydrofuro[3,4-c]pyridine-6-carboxamide], for which the Ki worked out at 232 nM.

In the case of `CC[C@]1(C)OCc2cc(C(=O)NC3CCn4nc(-c5ccccc5)cc4N(C)C3=O)ncc21` (stereo partly drawn) [Example 265, (3S)-3-ethyl-3-methyl-N-(4-methyl-5-oxo-2-phenyl-5,6,7,8-tetrahydro-4H-pyrazolo[1,5-a][1,3]diazepin-6-yl)-1,3-dihydrofuro[3,4-c]pyridine-6-carboxamide], the Ki came out at 4900 nM. Under `Cc1cc2n(n1)CC[C@H](NC(=O)c1cc3c(cn1)COC3(C)CC(F)(F)F)C(=O)N2C` (stereo partly drawn) [Example 266, N—((S)-2,4-dimethyl-5-oxo-5,6,7,8-tetrahydro-4H-pyrazolo[1,5-a][1,3]diazepin-6-yl)-1-m ethyl-1-(2,2,2-trifluoroethyl)-1,3-dihydrofuro[3,4-c]pyridine-6-carboxamide] stands 1300 nM.

Take `CN1C(=O)[C@@H](NC(=O)c2cc3c(cn2)COC3(C)C2CC2)COc2ccccc21` (stereo partly drawn) [Example 267, 1-cyclopropyl-1-methyl-N—((S)-5-methyl-4-oxo-2,3,4,5-tetrahydrobenzo[b][1,4]oxazepin-3-yl)-1,3-dihydrofuro[3,4-c]pyridine-6-carboxamide]: the Ki amounted to 37.4 nM. As for `Cc1cc2n(n1)CCC(NC(=O)c1ncn(Cc3ccc(F)cc3)n1)C(=O)N2C` (stereo not drawn) [Example 268, N-(2,4-dimethyl-5-oxo-5,6,7,8-tetrahydro-4H-pyrazolo[1,5-a][1,3]diazepin-6-yl)-1-(4-fluorobenzyl)-1H-1,2,4-triazole-3-carboxamide], the Ki amounted to 97.7 nM.

Regarding `CN1C(=O)C(NC(=O)c2ncn(CC3CC(F)(F)C3)n2)CCn2nc(C3CC3)cc21` (stereo not drawn) [Example 269, N-(2-cyclopropyl-4-methyl-5-oxo-5,6,7,8-tetrahydro-4H-pyrazolo[1,5-a][1,3]diazepin-6-yl)-1-((3,3-difluorocyclobutyl)methyl)-1H-1,2,4-triazole-3-carboxamide], the inhibitory constant (Ki) was determined as 811 nM. The result for `Cc1cc2n(n1)CC[C@H](NC(=O)c1ncn(C(C)c3ccc(F)cc3)n1)C(=O)N2C` (stereo partly drawn) [Example 270, N—((S)-2,4-dimethyl-5-oxo-5,6,7,8-tetrahydro-4H-pyrazolo[1,5-a][1,3]diazepin-6-yl)-1-(1-(4-fluorophenyl)ethyl)-1H-1,2,4-triazole-3-carboxamide] reads 88.5 nM.

`Cc1cc2n(n1)CC[C@H](NC(=O)c1ncn(C(C)c3ccccc3)n1)C(=O)N2C` (stereo partly drawn) [Example 271, N—((S)-2,4-dimethyl-5-oxo-5,6,7,8-tetrahydro-4H-pyrazolo[1,5-a][1,3]diazepin-6-yl)-1-(1-phenylethyl)-1H-1,2,4-triazole-3-carboxamide]: the Ki worked out at 93.6 nM. For `Cc1nn2c(c1C)N(C)C(=O)[C@@H](NC(=O)c1ncn(Cc3cccc(F)c3F)n1)CC2` [Example 272, (S)-1-(2,3-difluorobenzyl)-N-(2,3,4-trimethyl-5-oxo-5,6,7,8-tetrahydro-4H-pyrazolo[1,5-a][1,3]diazepin-6-yl)-1H-1,2,4-triazole-3-carboxamide], the Ki is 45.2 nM. Under `Cc1nn2c(c1C)N(C)C(=O)[C@@H](NC(=O)c1ncn(Cc3ccc(F)c(F)c3)n1)CC2` [Example 273, (S)-1-(3,4-difluorobenzyl)-N-(2,3,4-trimethyl-5-oxo-5,6,7,8-tetrahydro-4H-pyrazolo[1,5-a][1,3]diazepin-6-yl)-1H-1,2,4-triazole-3-carboxamide] stands 46.7 nM; under `Cc1nn2c(c1C)N(C)C(=O)[C@@H](NC(=O)c1ncn(Cc3ccccc3)n1)CC2` [Example 274, (S)-1-benzyl-N-(2,3,4-trimethyl-5-oxo-5,6,7,8-tetrahydro-4H-pyrazolo[1,5-a][1,3]diazepin-6-yl)-1H-1,2,4-triazole-3-carboxamide], 39.5 nM; under `CC[C@@]1(C)OCc2cnc(C(=O)N[C@H]3CCn4nc(C)cc4N(C)C3=O)cc21` [Example 275, (R)—N—((S)-2,4-dimethyl-5-oxo-5,6,7,8-tetrahydro-4H-pyrazolo[1,5-a][1,3]diazepin-6-yl)-1-ethyl-1-methyl-1,3-dihydrofuro[3,4-c]pyridine-6-carboxamide], 1100 nM.

As for `CC[C@@]1(C)OCc2cnc(C(=O)N[C@H]3CCn4nc(C)c(C)c4N(C)C3=O)cc21` [Example 276, (R)-1-ethyl-1-methyl-N—((S)-2,3,4-trimethyl-5-oxo-5,6,7,8-tetrahydro-4H-pyrazolo[1,5-a][1,3]diazepin-6-yl)-1,3-dihydrofuro[3,4-c]pyridine-6-carboxamide], the Ki was determined as 93.6 nM. As to `CN1C(=O)[C@@H](NC(=O)c2nnn3c2CC(C(F)(F)C(F)(F)F)CC3)COc2ccccc21` (stereo partly drawn) [Example 277, N—((S)-5-methyl-4-oxo-2,3,4,5-tetrahydrobenzo[b][1,4]oxazepin-3-yl)-5-(perfluoroethyl)-4,5,6,7-tetrahydro-[1,2,3]triazolo[1,5-a]pyridine-3-carboxamide], the Ki was 23.9 nM.

Turning to `Cc1ccc(Cn2cnc(C(=O)NC3CCn4nc(C5CC5)cc4N(C)C3=O)n2)cn1` (stereo not drawn) [Example 278, N-(2-cyclopropyl-4-methyl-5-oxo-5,6,7,8-tetrahydro-4H-pyrazolo[1,5-a][1,3]diazepin-6-yl)-1-((6-methylpyridin-3-yl)methyl)-1H-1,2,4-triazole-3-carboxamide], the Ki came out at 516 nM. As to `CN1C(=O)[C@@H](NC(=O)c2n[nH]c3ncc(C(F)(F)F)cc23)COc2ccccc21` [Example 279, (S)—N-(5-methyl-4-oxo-2,3,4,5-tetrahydrobenzo[b][1,4]oxazepin-3-yl)-5-(trifluoromethyl)-1H-pyrazolo[3,4-b]pyridine-3-carboxamide], the Ki was 98.1 nM.
